Here are results for one compound from PMC9929129, “Towards Translation of PqsR Inverse Agonists: From In Vitro Efficacy Optimization to In Vivo Proof‐of‐Principle” (Advanced Science, 2023).

Data set [1] in a line: Mouse maximum tolerated dose (MTD) study. The format is in vivo, NMRI mice. Here is the method:
1.4.6 Mouse Maximum tolerated dose (MTD) study (Aurigon)
The maximum tolerated dose of 24 in NMRI mice was conducted and analyzed at CRO ATRC Aurigon Toxicological Research Center Ltd, Hungary. The study was conducted in accordance with Standard Operating Procedures of ATRC and the requirements of EEC Directive 2001/83/EC of the European Parliament and of the Council of November 6, 2001 on the Community Code relating to Medicinal Products for human use (Official Journal L -311,28/11/2004, p.67–128) as amended by EEC Directive 2004/27/EC of the European Parliament and the Council of March 31, 2004 amending Directive 2001/83/EC on the Community code relating to medicinal products for human use (Official Journal L - 136, 30/04/2004, p. 34-57), ICH Guideline M3(R2) “Guidance on Nonclinical Safety Studies for the Conduct of Human Clinical Trials and Marketing Authorization for Pharmaceuticals”, ICH Guideline S3A “Toxicokinetics: The Assessment of Systemic Exposure in Toxicity Studies”, OECD Guideline for the Testing of Chemicals: Toxicokinetics, (OECD 417, 2010). This study was conducted in compliance with the principles of Hungarian Act 1998: XXVIII regulating animal protection (latest modified by Act 2011 CLVIII) and in Government Decree 40/2013 on animal experiments. Handling and care of the animals will be conducted according to the Guide for the Care and Use of Laboratory Animals, NRC, […]
Animals were 6 weeks old and weighed 27–34 g. 24 was applied subcutaneously in a formulation […]
48 h. As no clinical findings were observed, 30 mg/kg was then applied to the next group. Likewise, 60 mg/kg were applied 48 h after. Mortality was observed twice a day. Clinical observation was performed directly after dosing, 1 h, 2 h, 4 h, 24 h and 48 h after administration. Body weight was registered prior to treatment and daily after the dosing for 48 h. For serum concentration determination, 100 μL blood were collected from each animal at 0.5 h and 4 h time points after the administration, processed to plasma and analyzed using HPLC-MS/MS at HZI. Each group consisted of 5 male and 5 female mice, 2 of which were used for blood collection.

The nature of data set [2]: Metabolic stability in mouse liver microsomes (MLM).
Protocol: 1.3.2 Metabolic-Stability Tests in Mouse Liver Microsomes (MLM).
Phase I metabolic stability was evaluated by incubating the compound (1 μM) with 0.5 mg/mL MLM (Corning) and 1 mM NADPH at 37 °C for 0, 5, 10, 15 and 30 min. The enzymatic activity of the MLM was determined by measuring the metabolic stability of Verapamil, Diphenhydramine and Benzydamine (1 μM each).
The half-life (t1/2) was determined by analyzing the concentrations of the compounds at the different time points by HPLC-MS/MS.
In a further data set the target is T1, D1 (h) (Homo sapiens, UniProt P21728).
T1 construct: purchased Eurofins Pharma Discovery (Cerep) SafetyScreen44 Panel, ITEM P270
T1 sequence (P21728 whole entry): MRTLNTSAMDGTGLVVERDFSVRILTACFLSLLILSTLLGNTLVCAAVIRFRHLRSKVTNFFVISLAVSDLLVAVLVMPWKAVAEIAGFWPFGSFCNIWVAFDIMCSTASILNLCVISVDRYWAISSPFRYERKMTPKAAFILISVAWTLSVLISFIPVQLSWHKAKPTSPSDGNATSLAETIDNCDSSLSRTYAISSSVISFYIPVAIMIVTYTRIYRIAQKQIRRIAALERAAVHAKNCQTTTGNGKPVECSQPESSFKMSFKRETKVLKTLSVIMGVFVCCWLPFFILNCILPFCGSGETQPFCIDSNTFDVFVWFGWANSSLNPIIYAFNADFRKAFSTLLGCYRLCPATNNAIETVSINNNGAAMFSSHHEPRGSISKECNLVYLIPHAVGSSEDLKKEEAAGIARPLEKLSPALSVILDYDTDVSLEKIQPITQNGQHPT
Nature of the data set: Cerep panel binding assay. Particulars: antagonist radioligand. As for the experimental part: (§1) 1.4 Safety Pharmacology of Compound 24
(§2) 1.4.1 Cerep panel (Eurofins)
(§3) Compound 24 was further profiled for its off-target interactions against a panel of 44 targets. The
(§4) screening was done by Eurofins Pharma Discovery within the SafetyScreen44 Panel (Cerep, ITEM
(§5) P270). In all assays binding/functional inhibition was determined at 10 µM.
(§6) Table S6. […]

Another data set has as its target T2, mu (MOP) (h) (Homo sapiens, UniProt P35372).
T2 construct: purchased Eurofins Pharma Discovery (Cerep) SafetyScreen44 Panel, ITEM P270
Nature of the data set: Cerep panel binding assay. Particulars: agonist radioligand. As for the experimental part:
as §1, §2, §3, §4, §5, §6

Another data set has as its target T3, alpha2A (h) (Homo sapiens, UniProt P08913).
T3 construct: purchased Eurofins Pharma Discovery (Cerep) SafetyScreen44 Panel, ITEM P270
Nature of the data set: Cerep panel binding assay. Particulars: antagonist radioligand. Here is the method: as §1, §2, §3, §4, §5, §6

For data set [3], the target named is T4, GABAA α5/β3/γ2 ionotropic receptor (Homo sapiens, UniProt P18507+P28472+P31644).
T4 construct: host or cells: HEK293 cells
T4 sequence (P31644 32-462): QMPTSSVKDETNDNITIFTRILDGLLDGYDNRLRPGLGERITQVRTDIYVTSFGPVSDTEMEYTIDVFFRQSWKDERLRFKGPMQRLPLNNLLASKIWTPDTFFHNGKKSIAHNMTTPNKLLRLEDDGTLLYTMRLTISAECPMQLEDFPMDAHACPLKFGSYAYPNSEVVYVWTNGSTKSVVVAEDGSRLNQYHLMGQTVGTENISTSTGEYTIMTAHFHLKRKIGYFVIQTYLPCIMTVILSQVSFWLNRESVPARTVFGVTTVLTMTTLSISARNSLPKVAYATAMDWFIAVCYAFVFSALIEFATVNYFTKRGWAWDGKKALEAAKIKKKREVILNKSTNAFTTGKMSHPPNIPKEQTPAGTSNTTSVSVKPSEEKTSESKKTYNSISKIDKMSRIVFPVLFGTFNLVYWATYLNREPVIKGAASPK
T4 sequence (P28472 26-473): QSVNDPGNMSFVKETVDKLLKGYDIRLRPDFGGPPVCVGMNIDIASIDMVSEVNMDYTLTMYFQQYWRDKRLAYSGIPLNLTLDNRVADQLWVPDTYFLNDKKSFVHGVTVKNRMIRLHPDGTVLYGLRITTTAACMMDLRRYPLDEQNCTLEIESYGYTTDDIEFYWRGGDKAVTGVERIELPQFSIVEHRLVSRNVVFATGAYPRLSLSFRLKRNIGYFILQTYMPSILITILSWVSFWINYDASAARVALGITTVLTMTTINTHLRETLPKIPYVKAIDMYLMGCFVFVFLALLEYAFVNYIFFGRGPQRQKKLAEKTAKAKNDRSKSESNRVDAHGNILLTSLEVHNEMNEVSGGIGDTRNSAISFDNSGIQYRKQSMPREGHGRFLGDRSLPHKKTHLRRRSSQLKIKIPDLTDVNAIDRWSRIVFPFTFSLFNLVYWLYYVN
T4 sequence (P18507 40-475): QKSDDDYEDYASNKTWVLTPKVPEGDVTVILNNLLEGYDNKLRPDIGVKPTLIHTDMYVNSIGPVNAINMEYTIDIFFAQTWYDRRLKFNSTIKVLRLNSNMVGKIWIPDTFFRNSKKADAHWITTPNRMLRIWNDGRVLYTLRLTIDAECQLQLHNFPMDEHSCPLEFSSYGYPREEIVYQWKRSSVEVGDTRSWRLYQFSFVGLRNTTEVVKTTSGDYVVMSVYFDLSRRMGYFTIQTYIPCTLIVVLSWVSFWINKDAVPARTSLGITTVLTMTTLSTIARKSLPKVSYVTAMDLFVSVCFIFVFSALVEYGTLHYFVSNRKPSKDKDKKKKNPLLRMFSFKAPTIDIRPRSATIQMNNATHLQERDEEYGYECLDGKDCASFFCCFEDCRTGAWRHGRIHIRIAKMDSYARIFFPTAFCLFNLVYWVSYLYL
In words: Ion channel profiling at Charles River: GABAA. The format is cell-based. Here is the method: (§7) 1.4.3 Ion Channel Profiling at Charles River
(§8) Table S9. Compound 24 was tested against the following ion channels at Charles River Laboratories. […]
FASTPatch Assay IK (KCa3.1) calcium-activated potassium channel (human KCNN4 >30 gene) expressed in CHO cells […]
(§9) ScreenPatch Assay Kv1.3 potassium channel (human KCNA3 gene) expressed in CHO […]
(§10) FLIPR Assay expressed in HEK293 cells
(§11) GABAA α5/β3/γ2 ionotropic receptor (human GABRA5, GABRB3, >30 and GABRG2 genes, expressed in HEK293 cells

In another data set the target is T5, TRPA1 channel (Homo sapiens, UniProt O75762).
T5 construct: host or cells: CHO cells
In words: Ion channel profiling at Charles River: TRPA1. The format is cell-based. Conditions: expressed in CHO cells; read-out: ESTIMATED IC50. As for the experimental part:
as §7, §8, §9, §10
(§12) GABAA α5/β3/γ2 ionotropic receptor (human GABRA5, GABRB3, >30 and GABRG2 genes, expressed in HEK293 cells […]
TRPA1 channel (human TRPA1 gene) expressed in CHO cells >30 […]
(§13) An increase in the number of colonies of at least two-fold over baseline (mean + SD of the vehicle control) and a dose response indicate a positive response. An […]
(§14) different from the vehicle control.
(§15) Where indicated, S9 fraction from the livers of Aroclor 1254-treated rats were included in the incubation at a final concentration of 4.5%. A NADPH-regenerating system was also included to ensure a steady supply of reducing equivalents.

The target of another data set is T6, hERG (Homo sapiens, UniProt Q12809).
T6 construct: Cyprotex
T6 sequence (Q12809 whole entry): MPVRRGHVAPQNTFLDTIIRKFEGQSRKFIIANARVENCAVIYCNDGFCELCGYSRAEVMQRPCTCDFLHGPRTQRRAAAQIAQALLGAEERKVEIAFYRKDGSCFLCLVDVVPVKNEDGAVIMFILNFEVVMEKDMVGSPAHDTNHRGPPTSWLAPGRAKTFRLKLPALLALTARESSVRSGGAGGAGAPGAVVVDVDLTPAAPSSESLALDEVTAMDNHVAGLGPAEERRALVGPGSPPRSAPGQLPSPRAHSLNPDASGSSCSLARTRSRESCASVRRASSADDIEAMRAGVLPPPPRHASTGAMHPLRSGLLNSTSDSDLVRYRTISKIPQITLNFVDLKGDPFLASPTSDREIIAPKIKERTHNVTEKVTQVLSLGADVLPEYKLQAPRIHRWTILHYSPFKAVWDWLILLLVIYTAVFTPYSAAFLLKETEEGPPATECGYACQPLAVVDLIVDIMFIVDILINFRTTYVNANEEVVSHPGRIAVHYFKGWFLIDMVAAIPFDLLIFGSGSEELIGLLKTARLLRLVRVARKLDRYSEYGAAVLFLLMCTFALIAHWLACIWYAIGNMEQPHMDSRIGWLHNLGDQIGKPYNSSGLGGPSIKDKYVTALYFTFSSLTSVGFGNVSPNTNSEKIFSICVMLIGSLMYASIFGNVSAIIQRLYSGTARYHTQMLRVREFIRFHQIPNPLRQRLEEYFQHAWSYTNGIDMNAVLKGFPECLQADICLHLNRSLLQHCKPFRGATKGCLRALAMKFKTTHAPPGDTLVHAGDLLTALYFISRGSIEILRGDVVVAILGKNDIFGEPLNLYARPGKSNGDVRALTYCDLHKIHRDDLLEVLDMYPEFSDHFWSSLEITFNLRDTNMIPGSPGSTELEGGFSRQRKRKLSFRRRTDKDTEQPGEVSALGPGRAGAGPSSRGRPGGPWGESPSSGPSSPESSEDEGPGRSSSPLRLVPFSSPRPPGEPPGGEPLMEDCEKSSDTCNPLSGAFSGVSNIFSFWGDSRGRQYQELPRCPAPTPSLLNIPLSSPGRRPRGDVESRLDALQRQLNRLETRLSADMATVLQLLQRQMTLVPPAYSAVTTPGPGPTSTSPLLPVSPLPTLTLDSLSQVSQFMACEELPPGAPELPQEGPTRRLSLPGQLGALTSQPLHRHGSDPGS
Nature of the data set: hERG safety, single cell electrophysiology. The format is cell-based. Particulars: read-out: hERG inhibition IC50. As for the experimental part:
(§16) 1.4.4 Pharmacokinetic and off-target functional assays (Cyprotex)
(§17) Compound 24 was assayed at Cyprotex in functional assays for interference with important off-targets as well as important pharmacokinetic parameters. With the exception of plasma protein binding, a dose-response relationship was studied in order to calculate IC50 values.
(§18) Table S10. Information on in vitro ADMET assays performed at Cyprotex. […]
as §13, §14, §15
Background: Block of hERG is tested as a sign of cardiac risk.

The target in a further data set is T7, TRPC6 channel (Homo sapiens, UniProt Q9Y210).
T7 construct: host or cells: HEK293 cells
In words: Ion channel profiling at Charles River: TRPC6. The format is cell-based. Particulars: expressed in HEK293 cells; read-out: ESTIMATED IC50. As for the experimental part: as §7, §8, §9, §10, §12
TRPC6 channel (human TRPC6 gene) expressed in HEK293 cells >30 […]
as §13, §14, §15

Data set [4] can be described thus: Metabolic stability in mouse liver S9 fractions. The format is in vitro ADME. Conditions: liver S9 fraction, read-out: Mouse liver S9 t½.
In the next data set the target is T8, CYP2C9 (Homo sapiens, UniProt P11712).
T8 construct: Cyprotex
T8 sequence (P11712 whole entry): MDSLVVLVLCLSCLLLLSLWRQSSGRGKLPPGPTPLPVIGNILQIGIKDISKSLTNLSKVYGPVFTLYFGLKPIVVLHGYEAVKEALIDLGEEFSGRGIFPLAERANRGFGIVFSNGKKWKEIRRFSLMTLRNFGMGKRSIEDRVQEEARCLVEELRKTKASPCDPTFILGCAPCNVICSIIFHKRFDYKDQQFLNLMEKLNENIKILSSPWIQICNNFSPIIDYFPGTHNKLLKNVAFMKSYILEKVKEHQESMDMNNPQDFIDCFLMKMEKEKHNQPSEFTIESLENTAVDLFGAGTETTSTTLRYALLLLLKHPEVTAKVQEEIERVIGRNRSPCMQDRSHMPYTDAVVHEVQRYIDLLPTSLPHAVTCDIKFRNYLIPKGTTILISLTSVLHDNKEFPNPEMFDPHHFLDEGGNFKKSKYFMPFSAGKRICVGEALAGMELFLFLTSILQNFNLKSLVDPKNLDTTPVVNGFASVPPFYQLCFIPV
Nature of the data set: Cytochrome P450 inhibition assay, CYP2C9. Particulars: Metabolic activity. The format is in vitro ADME. As for the experimental part:
as §16, §17, §18, §13, §14, §15

For data set [5], the target named is T9, Cav1.2 (L-type) human Ca ion channel (Homo sapiens, UniProt Q13936).
T9 construct: Eurofins CYL8051QP2DR
Nature of the data set: cell-based. Here is the method: 1.4.2 Further functional off-target assays (Eurofins)
Table S8. Compound 24 was further tested in the following functional assays at Eurofins. […]
Cav1.2 (L-type) human Ca ion channel cell based automated patch >30 µM clamp assay (CYL8051QP2DR) […]
as §10, §11

A further data set addresses T10, CYP3A4 (Homo sapiens, UniProt P08684).
T10 construct: Cyprotex
Nature of the data set: Cytochrome P450 inhibition assay, CYP3A4. The format is in vitro ADME. As for the experimental part:
as §16, §17, §18, §13, §14, §15

T10 sequence (P08684 whole entry): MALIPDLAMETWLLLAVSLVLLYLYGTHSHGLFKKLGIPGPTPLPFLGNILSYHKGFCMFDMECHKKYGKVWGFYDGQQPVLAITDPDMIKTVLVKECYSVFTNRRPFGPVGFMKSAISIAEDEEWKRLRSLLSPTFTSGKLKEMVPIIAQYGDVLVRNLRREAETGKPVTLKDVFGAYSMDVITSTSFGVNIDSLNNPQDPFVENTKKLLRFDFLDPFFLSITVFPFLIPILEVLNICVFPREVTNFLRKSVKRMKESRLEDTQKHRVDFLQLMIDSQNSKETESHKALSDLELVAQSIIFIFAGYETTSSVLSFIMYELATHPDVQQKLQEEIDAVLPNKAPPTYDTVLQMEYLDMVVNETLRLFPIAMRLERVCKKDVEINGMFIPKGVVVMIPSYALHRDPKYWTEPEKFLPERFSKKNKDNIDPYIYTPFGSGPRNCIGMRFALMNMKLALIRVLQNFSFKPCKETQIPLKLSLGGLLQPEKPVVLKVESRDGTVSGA
T2 sequence (P35372 whole entry): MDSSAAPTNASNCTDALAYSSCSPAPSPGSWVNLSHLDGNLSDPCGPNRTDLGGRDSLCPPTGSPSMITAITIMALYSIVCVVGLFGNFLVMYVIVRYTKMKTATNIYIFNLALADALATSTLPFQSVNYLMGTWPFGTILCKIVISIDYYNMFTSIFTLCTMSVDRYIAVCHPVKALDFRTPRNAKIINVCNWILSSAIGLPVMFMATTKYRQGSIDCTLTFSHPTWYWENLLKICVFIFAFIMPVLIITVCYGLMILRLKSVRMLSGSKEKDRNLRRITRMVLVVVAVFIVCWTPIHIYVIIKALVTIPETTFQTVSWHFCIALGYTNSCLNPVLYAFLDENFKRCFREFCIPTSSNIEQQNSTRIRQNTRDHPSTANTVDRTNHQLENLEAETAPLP
T3 sequence (P08913 whole entry): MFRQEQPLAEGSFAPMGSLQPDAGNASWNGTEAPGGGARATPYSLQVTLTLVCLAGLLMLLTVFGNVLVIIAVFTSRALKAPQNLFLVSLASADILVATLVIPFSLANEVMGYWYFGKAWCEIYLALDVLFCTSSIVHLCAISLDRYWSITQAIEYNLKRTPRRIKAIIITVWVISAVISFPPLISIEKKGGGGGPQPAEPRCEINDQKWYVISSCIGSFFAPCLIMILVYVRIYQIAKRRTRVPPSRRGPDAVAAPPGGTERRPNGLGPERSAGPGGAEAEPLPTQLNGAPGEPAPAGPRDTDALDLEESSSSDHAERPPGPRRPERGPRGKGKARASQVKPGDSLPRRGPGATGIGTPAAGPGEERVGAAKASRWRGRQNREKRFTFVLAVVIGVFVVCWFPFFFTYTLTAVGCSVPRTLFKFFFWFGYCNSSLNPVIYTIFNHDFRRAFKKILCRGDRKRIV

In general, inhibition refers to the drop in the measured response relative to a control, in per cent. A high value points to a response far below the control. Usually IC50 stands for the midpoint of a concentration-inhibition curve. Regarding `CC(C)Oc1ccc(-c2ncc(CNc3ccnc(C(F)(F)F)c3)cn2)cc1Cl` [Compound 24], the clinical findings entry in [1] (60 mg kg^−1 subcutaneous, slight, transient, at 2 and 4 h) is “piloerection and decreased activity (3 of 10 mice)”; in data set [1] (10 and 30 mg kg^−1 subcutaneous), “devoid of any clinical findings”. Besides, the “mortality or loss of body weight” value in data set [1] (10, 30, and 60 mg kg^−1 subcutaneous, during 48 h) is recorded as “no mortality or loss of body weight”. Besides, the “tolerability in male and female mice” value in [1] (up to 60 mg kg^−1 subcutaneous) is “well tolerated”. In [2], this compound gave a half-life at 1 μM of 19 min. Moreover, the inhibition at 10 µM stood at 12.2% at D1 (h), 8.2% on mu (MOP) (h) and 8.4% on alpha2A (h). Besides, the IC50 in data set [3] was more than 30 µM; at TRPA1 channel it was more than 30 µM; on hERG, 15.8 µM; on TRPC6 channel, more than 30 µM; on CYP2C9, more than 25 µM; in data set [5], more than 30 µM. Further, the IC50 at CYP3A4 (Metabolic activity, activation observed) was more than 25 µM. Moreover, in data set [4], the half-life came to 50 min. The same compound showed a CYP3A4 activation at CYP3A4 (at 10 × 10^−6 M) of more than 50%.
